Reference: patent publication US20240209027A1, “PEPTIDE AND PEPTIDE-CONTAINING COMPOSITION” (PeptiAID Inc.,, priority 2021, published 2024)
pIC50: −log10 of the molar value. Starred links: 1 amine or outer side, 2 acyl side, 3 side chain; linkers in the order of their positions; H or OH if unused. Positions of bridges follow the written chain, without caps; N, C: chain ends. Non-standard residues stand in square brackets, D forms with d. Residues, ends and D or L forms follow the SMILES beside them. ξ: configuration not given here. Ala(piperidin-4-yl) = O=C([C@H](CC1CCN([*:3])CC1)N[*:1])[*:2]; Ala(indan-2-yl) = N[C@@H](CC1Cc2ccccc2C1)C(=O)O; Phe(4-COOH) = N[C@@H](Cc1ccc(C(=O)O)cc1)C(=O)O; X3 = O=C(O)CN1CCC(N[*:1])(C(=O)[*:2])CC1; Phe(4-F) = N[C@@H](Cc1ccc(F)cc1)C(=O)O; 3Pal = N[C@@H](Cc1cccnc1)C(=O)O; NMeE = CN[C@@H](CCC(=O)O)C(=O)O; dNMeE = CN[C@H](CCC(=O)O)C(=O)O; Cha = N[C@@H](CC1CCCCC1)C(=O)O; Cit = NC(=O)NCCC[C@H](N)C(=O)O; dNMeD = CN[C@H](CC(=O)O)C(=O)O; NMeNle = CCCC[C@H](NC)C(=O)O; ξαMeS = CC(N)(CO)C(=O)O; Aib = CC(C)(N)C(=O)O; Sar = CNCC(=O)O

Test system: SARS-CoV-2-derived S protein, Delta strain
Assay type: cell-based
Conditions: Table 12

| SMILES | pIC50 | Imax: % (at 500 nM) |
| --- | --- | --- |
| CCCC[C@H]1C(=O)NC(C)(C)C(=O)N[C@@H](CC2CCCCC2)C(=O)N[C@@H](Cc2ccc(F)cc2)C(=O)NC2(CCN(CC(=O)O)CC2)C(=O)N[C@@H](Cc2ccc(O)cc2)C(=O)N[C@@H](Cc2ccc(O)cc2)C(=O)N[C@@H](Cc2ccc(C(=O)O)cc2)C(=O)N[C@@H](CC2CCNCC2)C(=O)N[C@@H](CC2CCCCC2)C(=O)N[C@H](C(=O)N[C@H](CCC(=O)O)C(N)=O)CSCC(=O)N(C)[C@@H](CCC(=O)O)C(=O)N1C [Peptide 5555_p173] ({CH2CO}-[NMeE][NMeNle][Aib][Cha][Phe(4-F)][X3]YY[Phe(4-COOH)][Ala(piperidin-4-yl)][Cha]C[dE]-NH2; thioether N-12) | 9.22 | 100% |
| CCCC[C@H]1C(=O)NC(C)(C)C(=O)N[C@@H](CC2CCCCC2)C(=O)N[C@@H](Cc2ccc(F)cc2)C(=O)N(C)[C@H](CC(=O)O)C(=O)N[C@@H](Cc2ccc(O)cc2)C(=O)N[C@@H](Cc2ccc(O)cc2)C(=O)N[C@@H](Cc2ccc(C(=O)O)cc2)C(=O)N[C@@H](CC2CCNCC2)C(=O)N[C@@H](CC2CCCCC2)C(=O)N[C@H](C(=O)N[C@H](CCC(=O)O)C(N)=O)CSCC(=O)N(C)[C@@H](CCC(=O)O)C(=O)N1C [Peptide 5555_p176] ({CH2CO}-[NMeE][NMeNle][Aib][Cha][Phe(4-F)][dNMeD]YY[Phe(4-COOH)][Ala(piperidin-4-yl)][Cha]C[dE]-NH2; thioether N-12) | 9.22 | 100% |
| CCCC[C@H]1C(=O)NC(C)(C)C(=O)N[C@@H](CC2CCCCC2)C(=O)N[C@@H](Cc2ccc(F)cc2)C(=O)N[C@H](CC(=O)O)C(=O)N[C@@H](Cc2ccc(O)cc2)C(=O)N[C@@H](Cc2ccc(O)cc2)C(=O)N[C@@H](CCCNC(N)=O)C(=O)N[C@H](CCCCN)C(=O)N[C@@H](CC2CCCCC2)C(=O)N[C@H](C(=O)N[C@H](CCC(=O)O)C(N)=O)CSCC(=O)N[C@@H](Cc2cccnc2)C(=O)N1C [Peptide 5555_p177] ({CH2CO}-[3Pal][NMeNle][Aib][Cha][Phe(4-F)][dD]YY[Cit][dK][Cha]C[dE]-NH2; thioether N-12) | 8.55 | 97% |
| CCCC[C@H]1C(=O)NC(C)(C)C(=O)N[C@@H](CC2Cc3ccccc3C2)C(=O)N[C@@H](Cc2ccc(F)cc2)C(=O)N[C@H](CC(=O)O)C(=O)N[C@@H](Cc2ccc(O)cc2)C(=O)N[C@@H](Cc2ccc(O)cc2)C(=O)N[C@@H](CCCNC(N)=O)C(=O)N[C@H](CCCCN)C(=O)N[C@@H](CC2CCCCC2)C(=O)N[C@H](C(=O)N[C@H](CCC(=O)O)C(N)=O)CSCC(=O)N[C@@H](Cc2cccnc2)C(=O)N1C [Peptide 5555_p178] ({CH2CO}-[3Pal][NMeNle][Aib][Ala(indan-2-yl)][Phe(4-F)][dD]YY[Cit][dK][Cha]C[dE]-NH2; thioether N-12) | 8.72 | 100% |
| CCCC[C@H]1C(=O)NC(C)(C)C(=O)N[C@@H](CC2CCCCC2)C(=O)N[C@@H](Cc2ccc(F)cc2)C(=O)N2CCC[C@H]2C(=O)N[C@@H](Cc2ccc(O)cc2)C(=O)N[C@@H](Cc2ccc(O)cc2)C(=O)N[C@@H](CCCNC(N)=O)C(=O)N[C@H](CCCCN)C(=O)N[C@@H](CC2CCCCC2)C(=O)N[C@H](C(=O)N[C@H](CCC(=O)O)C(N)=O)CSCC(=O)N(C)[C@@H](CCC(=O)O)C(=O)N1C [Peptide 5555_p188] ({CH2CO}-[NMeE][NMeNle][Aib][Cha][Phe(4-F)]PYY[Cit][dK][Cha]C[dE]-NH2; thioether N-12) | 9.40 | 101% |
| CCCC[C@H]1C(=O)NC(C)(C)C(=O)N[C@@H](CC2CCCCC2)C(=O)N[C@@H](Cc2ccc(F)cc2)C(=O)N(C)[C@H](CCC(=O)O)C(=O)N[C@@H](Cc2ccc(O)cc2)C(=O)N[C@@H](Cc2ccc(O)cc2)C(=O)N[C@@H](Cc2ccc(C(=O)O)cc2)C(=O)N[C@@H](CC2CCNCC2)C(=O)N[C@@H](CC2CCCCC2)C(=O)N[C@H](C(=O)N[C@H](CCC(=O)O)C(N)=O)CSCC(=O)N[C@@H](Cc2cccnc2)C(=O)N1C [Peptide 5555_p192] ({CH2CO}-[3Pal][NMeNle][Aib][Cha][Phe(4-F)][dNMeE]YY[Phe(4-COOH)][Ala(piperidin-4-yl)][Cha]C[dE]-NH2; thioether N-12) | 8.60 | 102% |
| CCCC[C@H]1C(=O)NC(C)(C)C(=O)N[C@@H](CC2CCCCC2)C(=O)N[C@@H](Cc2ccc(F)cc2)C(=O)N[C@H](CC(=O)O)C(=O)N[C@@H](Cc2ccc(O)cc2)C(=O)N[C@@H](Cc2ccc(O)cc2)C(=O)N[C@@H](Cc2ccc(C(=O)O)cc2)C(=O)N[C@@H](CC2CCNCC2)C(=O)N[C@@H](CC2CCCCC2)C(=O)N[C@H](C(=O)N[C@H](CCC(=O)O)C(N)=O)CSCC(=O)N[C@@H](Cc2cccnc2)C(=O)N1C [Peptide 5555_p195] ({CH2CO}-[3Pal][NMeNle][Aib][Cha][Phe(4-F)][dD]YY[Phe(4-COOH)][Ala(piperidin-4-yl)][Cha]C[dE]-NH2; thioether N-12) | 8.64 | 101% |
| CCCC[C@H]1C(=O)NC(C)(C)C(=O)N[C@@H](CC2Cc3ccccc3C2)C(=O)N[C@@H](Cc2ccc(F)cc2)C(=O)NC2(CCN(CC(=O)O)CC2)C(=O)N[C@@H](Cc2ccc(O)cc2)C(=O)N[C@@H](Cc2ccc(O)cc2)C(=O)N[C@@H](Cc2ccc(C(=O)O)cc2)C(=O)N[C@@H](CC2CCNCC2)C(=O)N[C@@H](CC2CCCCC2)C(=O)N[C@H](C(=O)N[C@H](CCC(=O)O)C(N)=O)CSCC(=O)N(C)[C@@H](CCC(=O)O)C(=O)N1C [Peptide 5555_p196] ({CH2CO}-[NMeE][NMeNle][Aib][Ala(indan-2-yl)][Phe(4-F)][X3]YY[Phe(4-COOH)][Ala(piperidin-4-yl)][Cha]C[dE]-NH2; thioether N-12) | 9.10 | 101% |
| CCCC[C@H]1C(=O)NC(C)(C)C(=O)N[C@@H](CC2Cc3ccccc3C2)C(=O)N[C@@H](Cc2ccc(F)cc2)C(=O)NC(C)(CO)C(=O)N[C@@H](Cc2ccc(O)cc2)C(=O)N[C@@H](Cc2ccc(O)cc2)C(=O)N[C@@H](Cc2ccc(C(=O)O)cc2)C(=O)N[C@@H](CC2CCNCC2)C(=O)N[C@@H](CC2CCCCC2)C(=O)N[C@H](C(=O)N[C@H](CCC(=O)O)C(N)=O)CSCC(=O)N(C)[C@@H](CCC(=O)O)C(=O)N1C (stereo partly shown) [Peptide 5555_p197] ({CH2CO}-[NMeE][NMeNle][Aib][Ala(indan-2-yl)][Phe(4-F)][ξαMeS]YY[Phe(4-COOH)][Ala(piperidin-4-yl)][Cha]C[dE]-NH2; thioether N-12) | 9.40 | 101% |
| CCCC[C@H]1C(=O)NC(C)(C)C(=O)N[C@@H](CC2Cc3ccccc3C2)C(=O)N[C@@H](Cc2ccc(F)cc2)C(=O)N2CCC[C@H]2C(=O)N[C@@H](Cc2ccc(O)cc2)C(=O)N[C@@H](Cc2ccc(O)cc2)C(=O)N[C@@H](Cc2ccc(C(=O)O)cc2)C(=O)N[C@@H](CC2CCNCC2)C(=O)N[C@@H](CC2CCCCC2)C(=O)N[C@H](C(=O)N[C@H](CCC(=O)O)C(N)=O)CSCC(=O)N(C)[C@@H](CCC(=O)O)C(=O)N1C [Peptide 5555_p201] ({CH2CO}-[NMeE][NMeNle][Aib][Ala(indan-2-yl)][Phe(4-F)]PYY[Phe(4-COOH)][Ala(piperidin-4-yl)][Cha]C[dE]-NH2; thioether N-12) | 9.15 | 101% |
| CCCC[C@H]1C(=O)NC(C)(C)C(=O)N[C@@H](CC2CCCCC2)C(=O)N[C@@H](Cc2ccc(F)cc2)C(=O)NC(C)(CO)C(=O)N[C@@H](Cc2ccc(O)cc2)C(=O)N[C@@H](Cc2ccc(O)cc2)C(=O)N[C@@H](Cc2ccc(C(=O)O)cc2)C(=O)N[C@@H](CC2CCNCC2)C(=O)N[C@@H](CC2CCCCC2)C(=O)N[C@H](C(=O)N[C@H](CCC(=O)O)C(N)=O)CSCC(=O)N(C)[C@@H](CCC(=O)O)C(=O)N1C (stereo partly shown) [Peptide 5555_p203] ({CH2CO}-[NMeE][NMeNle][Aib][Cha][Phe(4-F)][ξαMeS]YY[Phe(4-COOH)][Ala(piperidin-4-yl)][Cha]C[dE]-NH2; thioether N-12) | 9.30 | 101% |
| CCCC[C@H]1C(=O)NC(C)(C)C(=O)N[C@@H](CC2Cc3ccccc3C2)C(=O)N[C@@H](Cc2ccc(F)cc2)C(=O)N(C)CC(=O)N[C@@H](Cc2ccc(O)cc2)C(=O)N[C@@H](Cc2ccc(O)cc2)C(=O)N[C@@H](CCCNC(N)=O)C(=O)N[C@H](CCCCN)C(=O)N[C@@H](CC2CCCCC2)C(=O)N[C@H](C(=O)N[C@H](CCC(=O)O)C(N)=O)CSCC(=O)N(C)[C@@H](CCC(=O)O)C(=O)N1C [Peptide 5555_p213] ({CH2CO}-[NMeE][NMeNle][Aib][Ala(indan-2-yl)][Phe(4-F)][Sar]YY[Cit][dK][Cha]C[dE]-NH2; thioether N-12) | 9.22 | 101% |
| CCCC[C@H]1C(=O)NC(C)(C)C(=O)N[C@@H](CC2Cc3ccccc3C2)C(=O)N[C@@H](Cc2ccc(F)cc2)C(=O)N2CCC[C@H]2C(=O)N[C@@H](Cc2ccc(O)cc2)C(=O)N[C@@H](Cc2ccc(O)cc2)C(=O)N[C@@H](CCCNC(N)=O)C(=O)N[C@H](CCCCN)C(=O)N[C@@H](CC2CCCCC2)C(=O)N[C@H](C(=O)N[C@H](CCC(=O)O)C(N)=O)CSCC(=O)N(C)[C@@H](CCC(=O)O)C(=O)N1C [Peptide 5555_p216] ({CH2CO}-[NMeE][NMeNle][Aib][Ala(indan-2-yl)][Phe(4-F)]PYY[Cit][dK][Cha]C[dE]-NH2; thioether N-12) | 9.40 | 102% |
| CCCC[C@H]1C(=O)NC(C)(C)C(=O)N[C@@H](CC2CCCCC2)C(=O)N[C@@H](Cc2ccc(F)cc2)C(=O)NC(C)(CO)C(=O)N[C@@H](Cc2ccc(O)cc2)C(=O)N[C@@H](Cc2ccc(O)cc2)C(=O)N[C@@H](CCCNC(N)=O)C(=O)N[C@H](CCCCN)C(=O)N[C@@H](CC2CCCCC2)C(=O)N[C@H](C(=O)N[C@H](CCC(=O)O)C(N)=O)CSCC(=O)N(C)[C@@H](CCC(=O)O)C(=O)N1C (stereo partly shown) [Peptide 5555_p218] ({CH2CO}-[NMeE][NMeNle][Aib][Cha][Phe(4-F)][ξαMeS]YY[Cit][dK][Cha]C[dE]-NH2; thioether N-12) | 9.52 | 101% |
